Measured values as given in the supplement of paper PMC10307832.

Assays:
Assay in all cases: relative viability (nuclei count vs DMSO), 5 days (fraction); higher = more cells survive
Mirin + Trametinib = compound: N=C1NC(=O)/C(=C/c2ccc(O)cc2)S1 [Mirin] + CC(=O)Nc1cccc(-n2c(=O)n(C3CC3)c(=O)c3c(Nc4ccc(I)cc4F)n(C)c(=O)c(C)c32)c1 [Trametinib] (partner 0.02 µM)
In short: (§1)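 One day after seeding in 1536-well plates, lung cancer cell lines were dosed by pin tool. Dosing was either single-drug or a fixed anchor-drug dose plus five library-drug doses (not always all listed) in √10 steps. After 5 days, nuclei were stained in one fix-and-stain step and counted on 4× images, and relative viability is the nuclei count of treated wells over that of vehicle wells, given as the median of duplicate plates.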

Mirin + Palbociclib = compound: N=C1NC(=O)/C(=C/c2ccc(O)cc2)S1 [Mirin] + CC(=O)c1c(C)c2cnc(Nc3ccc(N4CCNCC4)cn3)nc2n(C2CCCC2)c1=O [Palbociclib] (partner 0.5 µM)
In short: as §1

Mirin + Crizotinib = compound: N=C1NC(=O)/C(=C/c2ccc(O)cc2)S1 [Mirin] + C[C@@H](Oc1cc(-c2cnn(C3CCNCC3)c2)cnc1N)c1c(Cl)ccc(F)c1Cl [Crizotinib] (partner 1 µM)
In short: as §1

[1] = compound: CCC1=CN=CN=C1N2CCN(CC2)CC3=NC4=C(N3)C=C(C=C4)C(F)(F)F + CS(=O)(=O)CCNCc1ccc(-c2ccc3ncnc(Nc4ccc(OCc5cccc(F)c5)c(Cl)c4)c3c2)o1 [Lapatinib] (partner 2 µM)
In short: as §1

Row | Cell Line | relative viability (Mirin + Trametinib; first compound 0.25 µM) | relative viability (Mirin + Trametinib; first compound 0.7906 µM) | relative viability (Mirin + Trametinib; first compound 2.5 µM) | relative viability (Mirin + Trametinib; first compound 7.906 µM) | relative viability (Mirin + Trametinib; first compound 25 µM) | relative viability (Mirin + Palbociclib; first compound 0.25 µM) | relative viability (Mirin + Palbociclib; first compound 0.7906 µM) | relative viability (Mirin + Palbociclib; first compound 2.5 µM) | relative viability (Mirin + Palbociclib; first compound 7.906 µM) | relative viability (Mirin + Palbociclib; first compound 25 µM) | relative viability (Mirin + Crizotinib; first compound 0.25 µM) | relative viability (Mirin + Crizotinib; first compound 2.5 µM) | relative viability (Mirin + Crizotinib; first compound 7.906 µM) | relative viability (Mirin + Crizotinib; first compound 25 µM) | relative viability ([1]; first compound 0.04 µM) | relative viability ([1]; first compound 0.1265 µM) | relative viability ([1]; first compound 0.4 µM) | relative viability ([1]; first compound 1.265 µM) | relative viability ([1]; first compound 4 µM) | relative viability (Mirin + Crizotinib; first compound 0.7906 µM)
1 | A-427 | 0.734 | 0.647 | 0.718 | 0.677 | 0.706 | 0.494 | 0.5 | 0.552 | 0.516 | 0.504 | 0.87 | 0.809 | 0.881 | 0.958 | 0.795 | 0.991 | 1.01 | 0.911 | 1.05 | –
2 | HARA | 0.886 | – | 0.795 | 0.674 | 0.523 | 0.273 | 0.277 | 0.265 | 0.293 | 0.268 | 1.06 | 1.05 | 0.995 | 1.14 | 0.894 | 0.762 | 0.687 | 0.602 | 0.866 | 1.15
3 | NCI-H2009 | 0.277 | 0.334 | 0.334 | 0.293 | 0.282 | 0.221 | 0.262 | 0.162 | 0.202 | 0.238 | 1.08 | 1.01 | 0.853 | 1.16 | 1.07 | 1 | 0.894 | 0.715 | 0.808 | 1.11
4 | NCI-H1792 | 0.422 | 0.36 | 0.43 | 0.421 | 0.332 | 0.561 | 0.714 | 0.664 | – | 0.608 | 1.02 | 1.05 | 0.864 | 0.963 | 0.769 | 0.808 | 0.851 | 0.978 | 0.884 | 1.01
5 | LXF-289 | 0.694 | 0.726 | 0.635 | 0.665 | 0.828 | 0.585 | 0.648 | 0.591 | 0.623 | 0.701 | 0.808 | 0.787 | 0.899 | 0.945 | 1 | 0.853 | 0.845 | 0.974 | 0.899 | 0.87
6 | HCC-827 | 0.529 | 0.471 | 0.584 | 0.607 | 0.547 | 0.524 | 0.37 | 0.459 | 0.439 | 0.418 | 0.98 | 0.973 | 0.885 | 1.07 | 0.201 | 0.182 | 0.184 | 0.165 | 0.178 | 0.961
7 | EMC-BAC-2 | 0.934 | 0.889 | 0.875 | 0.761 | 0.957 | 0.485 | 0.515 | 0.52 | 0.4 | 0.502 | 0.727 | 0.774 | 0.697 | 0.616 | 0.889 | 0.864 | 0.86 | 0.743 | 0.982 | 0.818
8 | NCI-H1755 | 0.745 | 0.793 | 0.755 | 0.771 | 0.841 | 0.469 | 0.449 | 0.403 | 0.478 | 0.532 | 0.829 | 0.851 | 0.931 | 1.02 | 1.07 | 0.93 | 0.981 | 0.924 | 1.1 | 0.892
